# Data as given in ChEMBL document CHEMBL3885881, “DrugMatrix”.
# Species: Rattus norvegicus
# Assay: DrugMatrix - Regimen: Daily Repeat
# Format: toxicity, organism-based, Sprague-Dawley
# Set-up: regimen Daily Repeat, gender Male, age 6-8 weeks
# Settings: in vivo, sc, route subcutaneous, […]; for ABSOLUTE BASOPHIL / ABSOLUTE EOSINOPHIL / ABSOLUTE LYMPHOCYTE / ABSOLUTE MONOCYTE / BASOPHIL / EOSINOPHIL / ERYTHROCYTE COUNT / HEMATOCRIT / HEMOGLOBIN / LEUKOCYTE COUNT / LYMPHOCYTE / MEAN CORPUSCULAR HEMOGLOBIN / MEAN CORPUSCULAR HEMOGLOBIN CONCENTRATION / MEAN CORPUSCULAR VOLUME / MONOCYTE / NEUTROPHIL / NUCLEATED RED BLOOD CELLS / PLATELET COUNT: tissue Blood; for ALANINE AMINOTRANSFERASE / ALBUMIN / ASPARTATE AMINOTRANSFERASE / BLOOD UREA NITROGEN / CARBON DIOXIDE / CHLORIDE / CHOLESTEROL / CREATINE PHOSPHOKINASE / CREATININE / LACTATE DEHYDROGENASE / LIPASE / PHOSPHORUS / POTASSIUM / SODIUM / TOTAL BILIRUBIN / TOTAL PROTEIN / URIC ACID / GLUCOSE: tissue Plasma
# [1] = 0 mg/kg, 72 h, dose level Control, time 3 day
# [2] = 0 mg/kg, 120 h, dose level Control, time 5 day
# [3] = 64 mg/kg, 72 h, dose level Low, time 3 day
smiles,measurement,setting,value
Nc1ccc(S(N)(=O)=O)cc1 [SULFANILAMIDE],ABSOLUTE BASOPHIL,[1],0 CELLS/uL
same,ABSOLUTE EOSINOPHIL,[1],92.33 CELLS/uL
same,ABSOLUTE LYMPHOCYTE,[1],12247.5 CELLS/uL
same,ABSOLUTE MONOCYTE,[1],389.67 CELLS/uL
same,BASOPHIL,[1],0%
same,EOSINOPHIL,[1],0.67%
same,ERYTHROCYTE COUNT,[1],5.45 x10E6/uL
same,HEMATOCRIT,[1],34.85%
same,HEMOGLOBIN,[1],12.97 G/DL
same,LEUKOCYTE COUNT,[1],14.05 x10E3/uL
same,LYMPHOCYTE,[1],87.33%
same,MEAN CORPUSCULAR HEMOGLOBIN,[1],23.78 pg
same,MEAN CORPUSCULAR HEMOGLOBIN CONCENTRATION,[1],37.22 G/DL
same,MEAN CORPUSCULAR VOLUME,[1],63.93 fL
same,MONOCYTE,[1],2.67%
same,NEUTROPHIL,[1],9.33%
same,NUCLEATED RED BLOOD CELLS,[1],0 /100WBC
same,PLATELET COUNT,[1],1174 x10E3/uL
same,ALANINE AMINOTRANSFERASE,[1],48.83 u/L
same,ALBUMIN,[1],4.23 G/DL
same,ASPARTATE AMINOTRANSFERASE,[1],90 u/L
same,BLOOD UREA NITROGEN,[1],15.33 mg/dL
same,CARBON DIOXIDE,[1],23 mmol/L
same,CHLORIDE,[1],103.5 MEQ/L
same,CHOLESTEROL,[1],70.5 mg/dL
same,CREATINE PHOSPHOKINASE,[1],651.83 u/L
same,CREATININE,[1],0.22 mg/dL
same,LACTATE DEHYDROGENASE,[1],165 u/L
same,LIPASE,[1],9.33 u/L
same,PHOSPHORUS,[1],12.03 mg/dL
same,POTASSIUM,[1],6.17 MEQ/L
same,SODIUM,[1],142.62 MEQ/L
same,TOTAL BILIRUBIN,[1],0.2 mg/dL
same,TOTAL PROTEIN,[1],5.73 G/DL
same,URIC ACID,[1],1.77 mg/dL
same,ABSOLUTE BASOPHIL,[2],0 CELLS/uL
same,ABSOLUTE EOSINOPHIL,[2],0 CELLS/uL
same,ABSOLUTE LYMPHOCYTE,[2],12736.67 CELLS/uL
same,ABSOLUTE MONOCYTE,[2],253.5 CELLS/uL
same,BASOPHIL,[2],0%
same,EOSINOPHIL,[2],0%
same,ERYTHROCYTE COUNT,[2],5.72 x10E6/uL
same,HEMATOCRIT,[2],36.05%
same,HEMOGLOBIN,[2],13.62 G/DL
same,LEUKOCYTE COUNT,[2],14.18 x10E3/uL
same,LYMPHOCYTE,[2],89.33%
same,MEAN CORPUSCULAR HEMOGLOBIN,[2],23.83 pg
same,MEAN CORPUSCULAR HEMOGLOBIN CONCENTRATION,[2],37.8 G/DL
same,MEAN CORPUSCULAR VOLUME,[2],63.05 fL
same,MONOCYTE,[2],1.83%
same,NEUTROPHIL,[2],8.83%
same,NUCLEATED RED BLOOD CELLS,[2],0 /100WBC
same,PLATELET COUNT,[2],1322.17 x10E3/uL
same,ALANINE AMINOTRANSFERASE,[2],48.83 u/L
same,ALBUMIN,[2],4.27 G/DL
same,ASPARTATE AMINOTRANSFERASE,[2],75.83 u/L
same,BLOOD UREA NITROGEN,[2],15.5 mg/dL
same,CARBON DIOXIDE,[2],30.5 mmol/L
same,CHLORIDE,[2],102.33 MEQ/L
same,CHOLESTEROL,[2],76.17 mg/dL
same,CREATINE PHOSPHOKINASE,[2],205.5 u/L
same,CREATININE,[2],0.2 mg/dL
same,GLUCOSE,[2],149.67 mg/dL
same,LACTATE DEHYDROGENASE,[2],124.5 u/L
same,LIPASE,[2],10 u/L
same,PHOSPHORUS,[2],10.93 mg/dL
same,POTASSIUM,[2],6.59 MEQ/L
same,SODIUM,[2],143.1 MEQ/L
same,TOTAL BILIRUBIN,[2],0.2 mg/dL
same,TOTAL PROTEIN,[2],6.05 G/DL
same,URIC ACID,[2],1.45 mg/dL
same,ABSOLUTE BASOPHIL,[3],0 CELLS/uL
same,ABSOLUTE EOSINOPHIL,[3],0 CELLS/uL
same,ABSOLUTE LYMPHOCYTE,[3],13215.67 CELLS/uL
same,ABSOLUTE MONOCYTE,[3],191 CELLS/uL
same,BASOPHIL,[3],0%
same,EOSINOPHIL,[3],0%
same,ERYTHROCYTE COUNT,[3],5.71 x10E6/uL
same,HEMATOCRIT,[3],36.53%
same,HEMOGLOBIN,[3],13.5 G/DL
same,LEUKOCYTE COUNT,[3],14.17 x10E3/uL
same,LYMPHOCYTE,[3],93.33%
same,MEAN CORPUSCULAR HEMOGLOBIN,[3],23.67 pg
same,MEAN CORPUSCULAR HEMOGLOBIN CONCENTRATION,[3],36.97 G/DL
same,MEAN CORPUSCULAR VOLUME,[3],64.03 fL
same,MONOCYTE,[3],1.33%
same,NEUTROPHIL,[3],5.33%
same,NUCLEATED RED BLOOD CELLS,[3],0 /100WBC
same,PLATELET COUNT,[3],1225.33 x10E3/uL
same,ALANINE AMINOTRANSFERASE,[3],53 u/L
same,ALBUMIN,[3],4.13 G/DL
same,ASPARTATE AMINOTRANSFERASE,[3],87 u/L
same,BLOOD UREA NITROGEN,[3],16.33 mg/dL
same,CARBON DIOXIDE,[3],25.33 mmol/L
same,CHLORIDE,[3],103 MEQ/L
same,CHOLESTEROL,[3],70.33 mg/dL
same,CREATINE PHOSPHOKINASE,[3],269 u/L
same,CREATININE,[3],0.24 mg/dL
same,GLUCOSE,[3],150.67 mg/dL
same,LACTATE DEHYDROGENASE,[3],408.33 u/L
same,LIPASE,[3],10 u/L
same,PHOSPHORUS,[3],13.03 mg/dL
same,POTASSIUM,[3],6.94 MEQ/L
same,SODIUM,[3],144.53 MEQ/L
same,TOTAL BILIRUBIN,[3],0.27 mg/dL
same,TOTAL PROTEIN,[3],5.7 G/DL
same,URIC ACID,[3],1.7 mg/dL
